Experimental data published in patent publication EP0234113A1, “2,3-Dihydro-1H-phenalene-2-amino compounds as anti-psychotic drugs” (THE UPJOHN COMPANY, priority 1985, dated 1987).
Counter-ions that a name gives are not always drawn.

What was measured:
body temperature [1] = test: Hypothermia Test (effect on body temperature); format: in vivo, CF-1 male mice; settings: for active in either the hypothermic or the apomorphine antogonism test: either test: hypothermic or apomorphine antagonism; for ED50: Mus musculus, ip, 0.75 h, read-out: Hypothermia ED50
Method: (§1) The Effect on Body Temperature (Hypothermia) Test and the Antagonism of Apomorphone-Induced Case Climbing (ACC), (Apomorphine Gnawing Test) are described on page 1398 of the publication, Journal of Medicinal Chemistry, Vol. 22, No. 11, pp. 1390-1398, in an article entitled "6-Aryl-4H-s-triazolo[4,3-a][1,4]benzodiazepines....Action" by J. B. Hester, Jr., et al.
For the tests here, the Hypothermia Test procedure was run as follows:
A group of four CF-1 male mice (18-22 g each) was injected intraperitoneally with the test compound prepared in 0.25 percent w/v methylcellulose in water solution. After 45 min, abdominal temperature of each mouse was measured using a thermister probe. A control group of four mice was treated with vehicle only and the temperature of the control group was taken in a similar manner. A compound was considered to have a significant effect on body temperature if the mean temperature in the test compound treated group deviated more than 3.5°C from the mean temperature of the parallel control group. Stimulants tend to elevate temperatures; depressants tend to lower body temperature.

dopamine neurons [2] = test: Depression of dopamine neuron firing rates by the drug alone; format: in vivo, rats; settings: Rattus norvegicus, iv; for Emax: read-out: MAXIMUM EFFECT (per cent decrease)
Method: (§2) Table 2. Dopamine neuron firing rates were recorded according to published procedures and drugs were injected intravenously in chloral hydrate anesthetized rats. A. Ability of drugs to reverse the depression in firing rates of dopamine neurons by 1 to 2 mg/kg amphetamine. The maximum effect is the maximum amount of the amphetamine effect that was reversed, even when doses were increased beyond dose causing maximum effect. An effect greater than 100% indicates excitation of the neuron beyond its' control rate whereas an effect less than 100% indicates partial agonist effects. B. Depression of dopamine neurons by full agonist apomorphine and partial agonists TDHL, (-)PPP and U-64,273A. Maximum effect is maximum depression that could be realized even after increasing doses beyong the dose causing maximum effect. For both A and B, the ED50 is the dose causing 50% of the respective antagonistic (A) or agonist (B) effect.

Dopamine (3H-spiperone) = test: Receptor Binding Assay with 3H-spiperone (Dopamine Binding Assay), rat brain homogenate; settings: single concentration of 1 uM, 3H-spiperone, rat brain homogenate; 30 min
Method: The Receptor Binding Assay test for antipsychotic acitvity, was conducted as follows:
A rat brain homogenate was prepared (1) by homogenizing a whole rat brain minus the cerebellum in 10 ml of 0.05M THAM-HC1, pH 7.4, using a Polytron at a setting of 7 for 30 sec. and centrifuging at 15,000xg for 10 min. The supernatant was discarded, the pellet resuspended in 10 ml of buffer using the Polytron for 10 sec., and the centrifugation repeated. The pellet was resuspended and diluted to 100 times the original tissue weight with buffer. Then 100 ml of the homogenate was diluted to 400 ml with buffer.
The test drug was weighed out in a scintillation vial in a 1-5 mg ammount. They were dissolved by adding 0.5 ml of N-N-dimethylformamide of (DMF) and then 0.05 ml of 1M acetic acid, and vortexed to solubilize the drug. Then 10 ml of deionized and filtered water was added to the required volume. All compounds were tested at a single concentration of 1 uM.
Samples were prepared for incubation using an ^3H-spiperone (antipsychotic).
Incubation was conducted at 30°C for 30 min. on a shaking water bath. Every 30 sec., 24 tubes were filled with 1 ml of homogenate and put into the bath (this is done every 3 min. until all tubes are in the bath). Upon completion of the incubation procedure, the samples are filtered and rinsed.
The punched filters are dropped into vials, which are in turn filled with ACS liquid scintillation fluid and capped and counted in a liquid scintillation counter. Counting data is recorded and analyzed.
Results are expressed as percent decrease from control.

[3] = system: Apomorphone-Induced Case Climbing; test: Apomorphine antagonism (Apomorphine gnawing test; apomorphine-induced cage climbing); format: in vivo, Mouse; settings: Mus musculus, read-out: Apomor. Antag. ED50
Description: as §1
(§3) Table 3. […] A. Behavioral effects in the rat. B. Behavioral effects in the monkey. C. Doses required to antagonize the indicated behavioral effects of amphetamine. D. Doses required to antagonize the indicated behavioral effects of apomorphine.

body temperature [4] = test: Antagonism of drug-induced hypothermia; set-up: species or system mice; settings: mouse, in vivo
Catalepsy = test: Catalepsy; settings: rat, in vivo
Description: as §3

dopamine neurons [5] = test: Reversal of amphetamine depression of dopamine neuron firing rates; format: in vivo, rats; settings: for ED50 / Emax: Rattus norvegicus, Neuron, iv; for Emax: read-out: MAXIMUM EFFECT (per cent reversal)
Method: as §2, with “An effect greater than 100% indicates excitation of the neuron beyond its' control rate whereas an effect less than 100% indicates partial agonist effects.” left out

CN(C)C1Cc2cccc3c(C(=O)c4ccccc4)ccc(c23)C1 (stereo not drawn) [(39), [2-(N,N-dimethylamina-2,3-dihydro-1H-phenalen-6-yl]phenone maleate salt, hydrochloride]
active in either the hypothermic or the apomorphine antogonism test (body temperature [1]): active

CNC1Cc2cccc3c(OCc4ccccc4)ccc(c23)C1 (stereo not drawn) [(41), [2-(N-methylamino)-2,3-dihydro-1H-phenalen-6-yi]-α-benzyl-ether p-toluenesulfonate salt monohydrate]
active in either the hypothermic or the apomorphine antogonism test (body temperature [1]): active

CCCN(CCC)C1Cc2cccc3cc(OC(=O)C(C)(C)C)cc(c23)C1 (stereo not drawn) [(44), 2-(N,N-di-n-propylamino)-2,3-dihydro-lH-phenalen-5-ol, 2,2-dimethylpropyl ester hydrochloride]
active in either the hypothermic or the apomorphine antogonism test (body temperature [1]): active

CCCN(CCC)C1Cc2cccc3cc(OC(=O)c4ccccc4)cc(c23)C1 (stereo not drawn) [(45), [2-(N,N-di-n-propylamino)-2,3-dihydro-lH-phenalen-5-yl]benzoate ester hydrochloride]
active in either the hypothermic or the apomorphine antogonism test (body temperature [1]): active

CCCCCCC(=O)Oc1cc2c3c(cccc3c1)CC(N(CCC)CCC)C2 (stereo not drawn) [(46), [2-(N,N-di-n-propylamino)-2,3-dihydro-1H-phenalen-5-yl]heptanoate ester hydrochloride]
active in either the hypothermic or the apomorphine antogonism test (body temperature [1]): active

CCCN(CCC)C1Cc2cccc3cc(OC(=O)OCC)cc(c23)C1 (stereo not drawn) [(47), [2-(N,N-di-n-propylamino)-2,3-dihydro-lH-phenalen-5-yl]-ethyl carbonate (ester)]
active in either the hypothermic or the apomorphine antogonism test (body temperature [1]): active

CCCN(CCC)C1Cc2cccc3cc(OC(=O)Cc4ccccc4)cc(c23)C1 (stereo not drawn) [(48), [2-(N,N-di-n-propylamino)-2,3-dihydro-1H-phenalen-5-yl]-α-phenylacetate ester hydrochloride, 0.5 H2O hydrate]
active in either the hypothermic or the apomorphine antogonism test (body temperature [1]): active

Cl.NC1Cc2cccc3cc(Cl)cc(c23)C1 (stereo not drawn) [(50), 5-chloro-2,3-dihydro-1H-phenalen-2-ylamine hydrochloride]
active in either the hypothermic or the apomorphine antogonism test (body temperature [1]): active

CCCN(CCC)C1Cc2cccc3cccc(c23)C1 [(53), N,N-di-n-propyl-2,3-dihydro-lH-phenalen-2-amine hydrochloride]
active in either the hypothermic or the apomorphine antogonism test (body temperature [1]): active

c1cc2c3c(cccc3c1)CC(N1CCC1)C2 [(54), 1-[2,3-dihydro-IH-phenalen-2-yl]azetidine succinate salt]
active in either the hypothermic or the apomorphine antogonism test (body temperature [1]): active

CCN(CC)C1Cc2cccc3cccc(c23)C1 [(55), N,N-diethyl-2,3-dihydro-lH-phenalen-2-amine hydrochloride, 0.25 H2O hydrate]
active in either the hypothermic or the apomorphine antogonism test (body temperature [1]): active

CCCNC1Cc2cccc3cccc(c23)C1 [(56), N-n-propyl-2,3-dihydro-lH-phenalen-2-amine hydrochloride]
active in either the hypothermic or the apomorphine antogonism test (body temperature [1]): active

CCNC1Cc2cccc3cccc(c23)C1 [(57), N-ethyl-2,3-dihydro-lH-phenalen-2-amine hydrochloride]
active in either the hypothermic or the apomorphine antogonism test (body temperature [1]): active

CCCN1CCC[C@@H](c2cccc(O)c2)C1 [(-)PPP]
ED50 (dopamine neurons [2]; Neuron, dose causing 50% of the agonist effect, intravenously, anesthetized rats, read-out: ED50): 0.137 mg/kg
Emax (dopamine neurons [2]; B. depress DA neuron firing rates, intravenously, chloral hydrate anesthetized rats): 68%

Cc1ccc2c3c(cccc13)CC(N)C2 (stereo not drawn) [Example 38, part C, 6-methyl-2,3-dihydro-lH-phenalen-2-amine]
Dopamine Binding Assay % Decrease from Control (Dopamine (3H-spiperone)): -30.62%
ED50 (body temperature [1]): > 50 mg/kg
ED50 [3]: 35 mg/kg

CCCN(CCC)C1Cc2cccc3c(C)ccc(c23)C1 (stereo not drawn) [Example 38, title compound, 2,3-Dihydro-6-methyl-N,N-dipropyl-lH-phenalene-2-amine]
Dopamine Binding Assay % Decrease from Control (Dopamine (3H-spiperone)): -82.08%
ED50 (body temperature [1]): 18 mg/kg
ED50 [3]: > 50 mg/kg

CNC1Cc2cccc3c(C)ccc(c23)C1 (stereo not drawn) [Example 39, part B, 2,3-dihydro-N,6-dimethyl-1H-phenalen-2-amine]
Dopamine Binding Assay % Decrease from Control (Dopamine (3H-spiperone)): -55.37%
ED50 (body temperature [1]): 13 mg/kg
ED50 [3]: 35 mg/kg

Cc1ccc2c3c(cccc13)CC(N(C)C)C2 (stereo not drawn) [Example 39, part C, 2,3-dihydro-N,N,6-trimethyl-lH-phenalen-2-amine]
ED50 (body temperature [1]): 5.3 mg/kg
ED50 [3]: 21 mg/kg

CCCN(CCC)C1Cc2cccc3c(SC)ccc(c23)C1 (stereo not drawn) [Example 40, 2,3-Dihydro-N,N-di-n-propyl-6-methylthio-lH-phenalen-2-amine]
ED50 (body temperature [1]): 25 mg/kg
ED50 [3]: 12.5 mg/kg

CCCN(CCC)C1(C)Cc2cccc3cc(O)cc(c23)C1 (stereo not drawn) [Example 41, 5-Hydroxy-2-methyl-2,3-dihydro-N,N-di-n-propyl-lH-phenalene-2-amine]
Dopamine Binding Assay % Decrease from Control (Dopamine (3H-spiperone)): -55.18%
ED50 (body temperature [1]): > 50 mg/kg
ED50 [3]: > 50 mg/kg

O=C(CCCN1CCC(O)(c2ccc(Cl)cc2)CC1)c1ccc(F)cc1 [Haloperidol, haloperidol]
block of hypothermia induced by 2-(N,N-di-n-propylamino)-2,3-dihydro-lH-phenalen-5-ol (body temperature [4]): significantly blocks
Catalepsy, active dose (Catalepsy): 1 mg/kg
ED50 (dopamine neurons [5]): 0.008 mg/kg
Emax (dopamine neurons [5]): 164%
increase of firing rates to a level greater than controls (dopamine neurons [5]; after reversal of amphetamine depression of DA neuronal firing): 64%

CCN(CC)C(=O)N[C@H]1C[C@@H]2c3cccc4[nH]cc(c34)C[C@H]2N(C)C1 [TDHL, trans-dihydrolisuride]
ED50 (dopamine neurons [2]; Neuron): 0.021 mg/kg
Emax (dopamine neurons [2]; Neuron): 53%
ED50 (dopamine neurons [5]): 0.132 mg/kg
Emax (dopamine neurons [5]): 57%

CN(C)C1Cc2cccc3cccc(c23)C1 [U-65,556, 2,3-dihydro-N,N-dimethyl-lH-phenalen-2-amine]
reversal of amphetamine's depression of DA neuronal firing (in words) (dopamine neurons [5]; intravenous, anesthetized rats): reversed amphetamine's depressions of DA neurons without causing firing rates to increase over control

COC(=O)[C@@H]1[C@H]2C[C@H]3c4[nH]c5ccccc5c4CCN3C[C@@H]2CC[C@@H]1O [yohimbine]
block of hypothermia induced by 2-(N,N-di-n-propylamino)-2,3-dihydro-lH-phenalen-5-ol (body temperature [4]): did not alter
block of hypothermia induced by clonidine (body temperature [4]): did block

N,N-dimethyl-4-methoxy-1H-phenalen-2-ylamine hydrochloride, 0.25 H20 hydrate [(30)]
active in either the hypothermic or the apomorphine antogonism test (body temperature [1]): active

N,N-dimethyl-6-(2-methyl-l,3-dioxan-2-yl)-2,3-dihydro-lH- phenalen-2-amine [(8)]
active in either the hypothermic or the apomorphine antogonism test (body temperature [1]): active

N-methyl-6-(2-methyl-l,3-dioxan-2-yl)-2,3-dihydro-lH-phena- len-2-amine [(5)]
active in either the hypothermic or the apomorphine antogonism test (body temperature [1]): active

N-methyl-6-(2-methyl-l,3-dioxan-2-yl)-2,3-dihydro-lH-phena- len-2-amine maleate salt [(6)]
active in either the hypothermic or the apomorphine antogonism test (body temperature [1]): active

[2-amino-2,3-dihydro-lH-phenalen-6-yl]-a-benzyl ether maleate salt [(49)]
active in either the hypothermic or the apomorphine antogonism test (body temperature [1]): active
